The structures appear in SMILES notation.

A short description of the series: RP, Waters CORTECS UPLC C18, 100 × 2.1 mm, 1.6 µm, 40 °C, 0.4 mL/min, estimated dead time 0.55 min; A: water + 0.1% formic acid, pH 3; B: acetonitrile + 0.1% formic acid, pH 3; gradient (min/%B) 0/5 1.12/5 6.41/99.5 10.01/99.5. The settings on record: stereoisomer not certain.
Consider `COCC(=O)N(c1c(C)cccc1C)C(C)C(=O)OC` (configuration not stated) [Metalaxyl], for which the LC retention time is 4.33 min.
Turning to `Cc1nnc(-c2ccccc2)c(=O)n1N` [Metamitron], the LC retention time was 3.09 min.
To `Cc1cccc(C)c1N(Cn1cccn1)C(=O)CCl` [Metazachlor] belongs 4.52 min.
To `CC1(C)CCC(Cc2ccc(Cl)cc2)C1(O)Cn1cncn1` (configuration not stated) [Metconazole] belongs 5.24 min; to `CNC(=O)N(C)c1nc2ccccc2s1` [Methabenzthiazurone], 4.12 min.
Next, `COP(N)(=O)SC` (configuration not stated) [Methamidophos]: 0.974 min.
Turning to `CNC(=O)ON=C(C)SC` [Methomyl], the LC retention time was 4.02 min.
To `COCCCNc1nc(NC(C)C)nc(SC)n1` [Methoprotryne] belongs 3.87 min; to `COc1cccc(C(=O)NN(C(=O)c2cc(C)cc(C)c2)C(C)(C)C)c1C` [Methoxyfenozide], 5.09 min; to `COc1cc(C)c(C(=O)c2c(OC)ccc(Br)c2C)c(OC)c1OC` [Metrafenone], 4.52 min.
Next, `CSc1nnc(C(C)(C)C)c(=O)n1N` [Metribuzin]: 3.98 min.
Next, `COC(=O)c1ccccc1S(=O)(=O)NC(=O)Nc1nc(C)nc(OC)n1` [Metsulfuron-methyl]: 3.99 min.
In the case of `COC(=O)C=C(C)OP(=O)(OC)OC` [Mevinphos], the LC retention time is 3.41 min.
To `CNC(=O)Oc1cc(C)c(N(C)C)c(C)c1` [Mexacarbate] belongs 2.61 min.
To `CCC(C)C1OC2(C=CC1C)CC1CC(CC=C(C)C(OC3CC(OC)C(OC4CC(OC)C(O)C(C)O4)C(C)O3)C(C)C=CC=C3COC4C(O)C(C)=CC(C(=O)O1)C34O)O2` (configuration not stated) [Mixture of Avermectin B1a and B1b] belongs 6.5 min.
To `CCSC(=O)N1CCCCCC1` [Molinate] belongs 5.03 min.
As to `CNC(=O)C=C(C)OP(=O)(OC)OC` [Monocrotophos], the LC retention time is 2.65 min.
To `CON=C1CC2(CC3CC(CC=C(C)CC(C)C=CC=C4COC5C(O)C(C)=CC(C(=O)O3)C45O)O2)OC(C(C)=CC(C)C)C1C` (configuration not stated) [Moxidectin] belongs 6.81 min.
`CCCCC(C#N)(Cn1cncn1)c1ccc(Cl)cc1` (configuration not stated) [Myclobutanil]: the LC retention time was 4.93 min.
Turning to `CCCCCCCCCCCCCC(=O)OC(CC(=O)[O-])C[N+](C)(C)C` [Myristoyl-L-carnitine], the LC retention time is 5.13 min.
In the case of `CCC(C)C(=O)NCC(=O)O` (configuration not stated) [N-(2-Methylbutyryl)glycine], the LC retention time is 2.27 min.
To `O=C(O)CNC(=O)C=Cc1ccccc1` [N-(CINNAMOYL)GLYCINE] belongs 3.26 min; to `CSCCC(NC(C)=O)C(=O)O` (configuration not stated) [N-ACETYLMETHIONINE], 2.34 min; to `CC(=O)NCCc1c[nH]c2ccc(O)cc12` [N-ACETYLSEROTONIN], 2.55 min.
To `CC(=O)NC(Cc1c[nH]c2ccccc12)C(=O)O` (configuration not stated) [N-ACETYLTRYPTOPHAN] belongs 3.14 min; to `CC(=O)N[C@@H](Cc1ccc(O)cc1)C(=O)O` [N-Acetyl-L-tyrosine], 2.29 min; to `CNCCc1c[nH]c2ccccc12` [N-METHYLTRYPTAMINE], 2.54 min.
Next, `CCN(Cc1ccc(Cl)nc1)C(=C[N+](=O)[O-])NC` [Nitenpyram]: 2.6 min; `CC(CC(=O)O)C1CCC2C3CCC4CC(O)CCC4(C)C3CC(O)C12C` (configuration not stated) [Nor-Desoxycholic Acid]: 4.88 min; `O=C(NC(=O)c1c(F)cccc1F)Nc1ccc(OC(F)(F)C(F)OC(F)(F)F)c(Cl)c1` (configuration not stated) [Novaluron]: 5.71 min.
Take `CC(CCC(=O)O)C1CCC2C3C(=O)CC4CC(O)CCC4(C)C3CCC12C` (configuration not stated) [Nutriacholic Acid]: the LC retention time is 4.8 min.
Next, `CCCCCCCCC=CCCCCCCCC(=O)OC(CC(=O)[O-])C[N+](C)(C)C` [Oleoyl-L-carnitine]: 5.63 min; `CNC(=O)CSP(=O)(OC)OC` [Omethoate]: 1.75 min.
On to `CC(C)Oc1cc(-n2nc(C(C)(C)C)oc2=O)c(Cl)cc1Cl` [Oxadiazon], for which the LC retention time is 6.14 min.
As for `COCC(=O)N(c1c(C)cccc1C)N1CCOC1=O` [Oxadixyl], the LC retention time was 3.8 min.
To `Cc1cc(C)nc(NC(=O)NS(=O)(=O)c2ccccc2C(=O)OC2COC2)n1` [Oxasulfuron] belongs 3.85 min; to `CC1(C)COC(=O)C1O` (configuration not stated) [PANTOLACTONE], 3.31 min; to `Cn1c(=O)[nH]c2ncn(C)c2c1=O` [PARAXANTHINE], 2.15 min.
To `NC(Cc1ccccc1)C(=O)O` (configuration not stated) [PHENYLALANINE] belongs 1.25 min; to `NCC(O)c1ccccc1` (configuration not stated) [PHENYLETHANOLAMINE], 0.755 min.
To `O=C(O)c1ccccn1` [PICOLINATE] belongs 0.719 min; to `O=C(O)c1ccc[nH]1` [PYRROLE-2-CARBOXYLATE], 0.766 min; to `CC(C)(C)C(O)C(Cc1ccc(Cl)cc1)n1cncn1` (configuration not stated) [Paclobutrazol], 4.7 min.
Regarding `CCCC(Cn1cncn1)c1ccc(Cl)cc1Cl` (configuration not stated) [Penconazole], the LC retention time was 5.19 min.
As for `O=C(Nc1ccccc1)N(Cc1ccc(Cl)cc1)C1CCCC1` [Pencycuron], the LC retention time is 5.69 min.
To `CCC(CC)Nc1c([N+](=O)[O-])cc(C)c(C)c1[N+](=O)[O-]` [Pendimethalin (Penoxalin)] belongs 5.42 min; to `COC(=O)Nc1cccc(OC(=O)Nc2cccc(C)c2)c1` [Phenmediphan], 4.71 min; to `CCOC(=O)C(SP(=S)(OC)OC)c1ccccc1` (configuration not stated) [Phenthoate], 5.54 min.
For the molecule `O=C(O)C(=O)Cc1ccccc1` [Phenylpyruvic acid], the LC retention time was 2.29 min.
To `CCOP(=S)(OCC)SCn1c(=O)oc2cc(Cl)ccc21` [Phosalone] belongs 5.7 min.
To `CCOP(=S)(OCC)ON=C(C#N)c1ccccc1` [Phoxim] belongs 5.44 min; to `O=C(Nc1ccc(F)cc1)c1cccc(Oc2cccc(C(F)(F)F)c2)n1` [Picolinafen], 5.93 min; to `COC=C(C(=O)OC)c1ccccc1COc1cccc(C(F)(F)F)n1` [Picoxystrobin], 5.45 min.
To `Cc1nc(N(C)C)nc(OC(=O)N(C)C)c1C` [Pirimicarb] belongs 3.06 min.
For `CCN(CC)c1nc(C)cc(OP(=S)(OC)OC)n1` [Pirimiphos-methyl], the LC retention time was 5.67 min.
Next, `CCCN(CCOc1c(Cl)cc(Cl)cc1Cl)C(=O)n1ccnc1` [Prochloraz]: 4.73 min; `CC12CC1(C)C(=O)N(c1cc(Cl)cc(Cl)c1)C2=O` (configuration not stated) [Procymidone]: 5.21 min; `CCCSP(=O)(OCC)Oc1ccc(Br)cc1Cl` (configuration not stated) [Profenofos]: 5.85 min.
To `COc1nc(NC(C)C)nc(NC(C)C)n1` [Prometon] belongs 3.54 min; to `CCCOC(=O)NCCCN(C)C` [Propamocarb], 1.97 min.
To `CCCC1COC(Cn2cncn2)(c2ccc(Cl)cc2Cl)O1` (configuration not stated) [Propioconazole] belongs 5.3 min; to `CCC(=O)OC(CC(=O)[O-])C[N+](C)(C)C` [Propionyl-L-carnitine], 0.871 min.
For `C#CC(C)(C)NC(=O)c1cc(Cl)cc(Cl)c1` [Propyzamide], the LC retention time was 5.01 min.
To `CCCN(CCC)C(=O)SCc1ccccc1` [Prosulfocarb] belongs 5.95 min; to `CC1=NNC(=O)N(N=Cc2cccnc2)C1` [Pymetrozin], 1.02 min; to `CC1=C(C(=O)Nc2ccccc2)CCCO1` [Pyracarbolid], 4.15 min.
To `COC(=O)N(OC)c1ccccc1COc1ccn(-c2ccc(Cl)cc2)n1` [Pyraclostrobin] belongs 5.6 min.
Next, `CC(C)(C)c1ccc(CSc2cnn(C(C)(C)C)c(=O)c2Cl)cc1` [Pyridaben]: 6.5 min.
With `CCCCCCCCSC(=O)Oc1cc(Cl)nnc1-c1ccccc1` [Pyridat], the LC retention time was 6.78 min.
Next, `Cc1cc(C)nc(Nc2ccccc2)n1` [Pyrimethanil]: 4.13 min.
Turning to `CC(COc1ccc(Oc2ccccc2)cc1)Oc1ccccn1` (configuration not stated) [Pyripoxyfen], the LC retention time was 6.07 min.
To `CCOP(=S)(OCC)Oc1cnc2ccccc2n1` [Quinalfos] belongs 5.44 min; to `Cc1cnc2c(C(=O)O)c(Cl)ccc2c1` [Quinmerac], 3.17 min.
Next, `NC1=C(Cl)C(=O)c2ccccc2C1=O` [Quinoclamine]: 3.86 min; `Cc1cc2nc3c(=O)[nH]c(=O)nc-3n(CC(O)C(O)C(O)CO)c2cc1C` (configuration not stated) [RIBOFLAVIN]: 2.67 min.
Take `OCC1OC(O)C(O)C1O` (configuration not stated) [RIBOSE]: the LC retention time was 0.798 min.
Next, `CCS(=O)(=O)c1cccnc1S(=O)(=O)NC(=O)Nc1nc(OC)cc(OC)n1` [Rimsulfuron]: 4.11 min; `C[S+](CCC(N)C(=O)[O-])CC1OC(n2cnc3c(N)ncnc32)C(O)C1O` (configuration not stated) [S-ADENOSYLMETHIONINE]: 5.56 min; `CCCCCCSCC(NC(=O)CCC(N)C(=O)O)C(=O)NCC(=O)O` (configuration not stated) [S-HEXYL-GLUTATHIONE]: 3.31 min.
In the case of `NC(=O)c1ccccc1O` [SALICYLAMIDE], the LC retention time is 2.88 min.
Next, `CC1NCCc2cc(O)c(O)cc21` (configuration not stated) [SALSOLINOL]: 0.749 min; `CC(C)=CCCC(C)=CCCC(C)=CCCC=C(C)CCC=C(C)CCC=C(C)C` [SQUALENE]: 6.18 min.

Values taken from the RepoRT retention time repository.
